How the values were obtained:
Assay in all cases: biochemical
Details in all cases: read-out: % inhibition mean (Z'Lyte)
[1] = target: ABL1 Y253F (Homo sapiens, UniProt P00519, Y253F)
[2] = target: ADRBK1 (GRK2) (Homo sapiens, UniProt P25098)
[3] = target: ADRBK2 (GRK3) (Homo sapiens, UniProt P35626)
[4] = target: AKT1 (PKB alpha) (Homo sapiens, UniProt P31749)
[5] = target: CAMK2B (CaMKII beta) (Homo sapiens, UniProt Q13554)
[6] = target: CDC42 BPA (MRCKA) (Homo sapiens, UniProt Q5VT25)
[7] = target: CDC42 BPG (MRCKG) (Homo sapiens, UniProt Q6DT37)
[8] = target: CLK2 (Homo sapiens, UniProt P49760)
[9] = target: CLK3 (Homo sapiens, UniProt P49761)
[10] = target: CSK (Homo sapiens, UniProt P41240)
Sequence of CSK (P41240 whole entry): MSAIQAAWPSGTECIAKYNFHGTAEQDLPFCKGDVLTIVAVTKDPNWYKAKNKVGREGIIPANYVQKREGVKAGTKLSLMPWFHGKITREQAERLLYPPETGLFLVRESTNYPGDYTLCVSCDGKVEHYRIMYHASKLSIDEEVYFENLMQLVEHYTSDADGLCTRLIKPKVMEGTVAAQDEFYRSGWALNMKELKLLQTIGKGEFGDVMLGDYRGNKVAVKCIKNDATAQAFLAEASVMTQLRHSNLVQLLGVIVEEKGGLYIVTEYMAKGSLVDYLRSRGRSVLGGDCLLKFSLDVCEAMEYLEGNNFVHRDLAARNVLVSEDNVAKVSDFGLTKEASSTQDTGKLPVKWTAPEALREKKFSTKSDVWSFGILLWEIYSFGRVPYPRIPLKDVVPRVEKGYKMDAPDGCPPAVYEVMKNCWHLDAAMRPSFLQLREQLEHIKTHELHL

[11] = target: CSNK1A1 (CK1 alpha 1) (Homo sapiens, UniProt P48729)
[12] = target: DCAMKL2 (DCK2) (Homo sapiens, UniProt Q8N568)
[13] = target: EGFR (ErbB1) L858R (Homo sapiens, UniProt P00533, L858R)
[14] = target: EPHA5 (Homo sapiens, UniProt P54756)
[15] = target: FGFR2 (Homo sapiens, UniProt P21802)
[16] = target: FGFR3 K650E (Homo sapiens, UniProt P22607, K650E)
[17] = target: FLT1 (VEGFR1) (Homo sapiens, UniProt P17948)
[18] = target: FLT3 (Homo sapiens, UniProt P36888)
[19] = target: GRK6 (Homo sapiens, UniProt P43250)
[20] = target: KIT (Homo sapiens, UniProt P10721)
[21] = target: MAPKAPK2 (Homo sapiens, UniProt P49137)
Sequence of MAPKAPK2 (P49137 whole entry): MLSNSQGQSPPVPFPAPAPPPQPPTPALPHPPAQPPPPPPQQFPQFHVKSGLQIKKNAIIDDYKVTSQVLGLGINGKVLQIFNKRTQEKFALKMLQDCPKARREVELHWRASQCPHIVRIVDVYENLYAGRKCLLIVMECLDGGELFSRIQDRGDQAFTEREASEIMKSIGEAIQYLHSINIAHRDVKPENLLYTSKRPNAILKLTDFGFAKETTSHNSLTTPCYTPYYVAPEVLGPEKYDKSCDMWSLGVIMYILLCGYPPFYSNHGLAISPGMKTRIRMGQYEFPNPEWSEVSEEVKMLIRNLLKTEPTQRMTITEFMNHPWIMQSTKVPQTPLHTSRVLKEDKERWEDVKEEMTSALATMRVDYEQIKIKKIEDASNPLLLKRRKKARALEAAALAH

[22] = target: MARK1 (MARK) (Homo sapiens, UniProt Q9P0L2)
Sequence of MARK1 (MARK) (Q9P0L2 whole entry): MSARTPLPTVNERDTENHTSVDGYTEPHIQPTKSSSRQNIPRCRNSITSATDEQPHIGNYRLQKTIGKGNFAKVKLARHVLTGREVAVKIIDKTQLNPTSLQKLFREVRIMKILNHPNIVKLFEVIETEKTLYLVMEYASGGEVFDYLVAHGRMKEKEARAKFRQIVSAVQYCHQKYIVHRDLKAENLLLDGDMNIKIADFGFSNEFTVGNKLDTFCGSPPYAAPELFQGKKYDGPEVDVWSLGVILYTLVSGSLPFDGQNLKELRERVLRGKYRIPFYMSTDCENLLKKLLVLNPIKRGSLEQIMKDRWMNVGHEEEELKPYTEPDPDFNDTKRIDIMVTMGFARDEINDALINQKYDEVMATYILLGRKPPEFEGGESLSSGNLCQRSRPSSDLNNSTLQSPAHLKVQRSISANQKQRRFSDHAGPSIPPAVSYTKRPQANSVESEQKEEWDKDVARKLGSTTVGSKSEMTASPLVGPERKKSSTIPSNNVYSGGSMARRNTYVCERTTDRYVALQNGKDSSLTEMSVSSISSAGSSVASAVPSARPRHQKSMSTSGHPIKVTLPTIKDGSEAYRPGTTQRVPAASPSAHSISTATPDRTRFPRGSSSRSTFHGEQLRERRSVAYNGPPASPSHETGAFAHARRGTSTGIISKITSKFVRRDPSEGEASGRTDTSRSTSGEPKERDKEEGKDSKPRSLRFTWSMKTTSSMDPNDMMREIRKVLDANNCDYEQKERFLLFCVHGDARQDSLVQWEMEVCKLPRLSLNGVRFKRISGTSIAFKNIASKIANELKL

[23] = target: MET (cMet) Y1235D (Homo sapiens, UniProt P08581, Y1235D)
[24] = target: NEK1 (Homo sapiens, UniProt Q96PY6)
[25] = target: NTRK1 (TRKA) (Homo sapiens, UniProt P04629)
[26] = target: PAK3 (Homo sapiens, UniProt O75914)
Sequence of PAK3 (O75914 whole entry): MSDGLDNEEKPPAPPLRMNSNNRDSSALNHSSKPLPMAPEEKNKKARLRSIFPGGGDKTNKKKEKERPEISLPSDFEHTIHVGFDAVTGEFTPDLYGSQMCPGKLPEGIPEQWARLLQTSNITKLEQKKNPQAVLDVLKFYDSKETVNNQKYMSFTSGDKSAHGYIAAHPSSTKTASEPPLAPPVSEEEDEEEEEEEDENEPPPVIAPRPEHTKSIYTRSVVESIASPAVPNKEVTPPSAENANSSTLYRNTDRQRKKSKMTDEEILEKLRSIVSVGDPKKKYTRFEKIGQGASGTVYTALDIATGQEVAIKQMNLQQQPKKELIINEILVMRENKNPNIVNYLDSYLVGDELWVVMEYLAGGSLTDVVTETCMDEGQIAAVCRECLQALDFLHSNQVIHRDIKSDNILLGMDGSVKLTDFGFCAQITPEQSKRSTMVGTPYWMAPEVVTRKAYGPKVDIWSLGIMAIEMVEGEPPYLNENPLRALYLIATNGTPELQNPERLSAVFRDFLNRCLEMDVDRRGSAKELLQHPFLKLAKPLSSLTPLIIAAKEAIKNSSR

[27] = target: SGK2 (Homo sapiens, UniProt Q9HBY8)
Sequence of SGK2 (Q9HBY8 whole entry): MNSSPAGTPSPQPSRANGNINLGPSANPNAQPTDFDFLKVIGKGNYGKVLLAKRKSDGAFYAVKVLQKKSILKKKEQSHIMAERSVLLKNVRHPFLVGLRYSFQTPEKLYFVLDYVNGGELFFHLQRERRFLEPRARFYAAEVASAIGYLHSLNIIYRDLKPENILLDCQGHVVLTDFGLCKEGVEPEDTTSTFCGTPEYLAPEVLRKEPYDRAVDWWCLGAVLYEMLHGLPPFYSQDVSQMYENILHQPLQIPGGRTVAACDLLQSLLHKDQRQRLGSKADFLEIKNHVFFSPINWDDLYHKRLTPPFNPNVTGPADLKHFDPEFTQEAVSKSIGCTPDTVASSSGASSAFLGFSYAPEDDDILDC

[28] = target: STK24 (MST3) (Homo sapiens, UniProt Q9Y6E0)

Sequence of ADRBK1 (GRK2) (P25098 whole entry): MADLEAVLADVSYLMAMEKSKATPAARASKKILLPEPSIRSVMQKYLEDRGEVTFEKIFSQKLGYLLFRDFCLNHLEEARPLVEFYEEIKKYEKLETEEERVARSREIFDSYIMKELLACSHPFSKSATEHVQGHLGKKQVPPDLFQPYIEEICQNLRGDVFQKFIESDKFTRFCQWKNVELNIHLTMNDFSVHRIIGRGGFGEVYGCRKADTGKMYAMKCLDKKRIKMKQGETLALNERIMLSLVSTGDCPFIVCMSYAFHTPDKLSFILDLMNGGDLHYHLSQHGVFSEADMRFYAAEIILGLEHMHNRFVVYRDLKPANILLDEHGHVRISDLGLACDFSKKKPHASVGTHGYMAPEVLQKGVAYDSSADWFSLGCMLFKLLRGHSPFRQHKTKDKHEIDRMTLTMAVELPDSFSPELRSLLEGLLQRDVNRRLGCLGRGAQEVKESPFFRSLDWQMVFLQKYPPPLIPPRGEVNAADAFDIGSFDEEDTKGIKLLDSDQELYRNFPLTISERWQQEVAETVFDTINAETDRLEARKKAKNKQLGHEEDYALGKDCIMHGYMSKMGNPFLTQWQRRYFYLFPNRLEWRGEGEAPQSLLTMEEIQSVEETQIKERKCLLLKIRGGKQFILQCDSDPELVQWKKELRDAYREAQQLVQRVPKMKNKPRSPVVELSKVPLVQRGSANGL
Sequence of CDC42 BPA (MRCKA) (Q5VT25 whole entry): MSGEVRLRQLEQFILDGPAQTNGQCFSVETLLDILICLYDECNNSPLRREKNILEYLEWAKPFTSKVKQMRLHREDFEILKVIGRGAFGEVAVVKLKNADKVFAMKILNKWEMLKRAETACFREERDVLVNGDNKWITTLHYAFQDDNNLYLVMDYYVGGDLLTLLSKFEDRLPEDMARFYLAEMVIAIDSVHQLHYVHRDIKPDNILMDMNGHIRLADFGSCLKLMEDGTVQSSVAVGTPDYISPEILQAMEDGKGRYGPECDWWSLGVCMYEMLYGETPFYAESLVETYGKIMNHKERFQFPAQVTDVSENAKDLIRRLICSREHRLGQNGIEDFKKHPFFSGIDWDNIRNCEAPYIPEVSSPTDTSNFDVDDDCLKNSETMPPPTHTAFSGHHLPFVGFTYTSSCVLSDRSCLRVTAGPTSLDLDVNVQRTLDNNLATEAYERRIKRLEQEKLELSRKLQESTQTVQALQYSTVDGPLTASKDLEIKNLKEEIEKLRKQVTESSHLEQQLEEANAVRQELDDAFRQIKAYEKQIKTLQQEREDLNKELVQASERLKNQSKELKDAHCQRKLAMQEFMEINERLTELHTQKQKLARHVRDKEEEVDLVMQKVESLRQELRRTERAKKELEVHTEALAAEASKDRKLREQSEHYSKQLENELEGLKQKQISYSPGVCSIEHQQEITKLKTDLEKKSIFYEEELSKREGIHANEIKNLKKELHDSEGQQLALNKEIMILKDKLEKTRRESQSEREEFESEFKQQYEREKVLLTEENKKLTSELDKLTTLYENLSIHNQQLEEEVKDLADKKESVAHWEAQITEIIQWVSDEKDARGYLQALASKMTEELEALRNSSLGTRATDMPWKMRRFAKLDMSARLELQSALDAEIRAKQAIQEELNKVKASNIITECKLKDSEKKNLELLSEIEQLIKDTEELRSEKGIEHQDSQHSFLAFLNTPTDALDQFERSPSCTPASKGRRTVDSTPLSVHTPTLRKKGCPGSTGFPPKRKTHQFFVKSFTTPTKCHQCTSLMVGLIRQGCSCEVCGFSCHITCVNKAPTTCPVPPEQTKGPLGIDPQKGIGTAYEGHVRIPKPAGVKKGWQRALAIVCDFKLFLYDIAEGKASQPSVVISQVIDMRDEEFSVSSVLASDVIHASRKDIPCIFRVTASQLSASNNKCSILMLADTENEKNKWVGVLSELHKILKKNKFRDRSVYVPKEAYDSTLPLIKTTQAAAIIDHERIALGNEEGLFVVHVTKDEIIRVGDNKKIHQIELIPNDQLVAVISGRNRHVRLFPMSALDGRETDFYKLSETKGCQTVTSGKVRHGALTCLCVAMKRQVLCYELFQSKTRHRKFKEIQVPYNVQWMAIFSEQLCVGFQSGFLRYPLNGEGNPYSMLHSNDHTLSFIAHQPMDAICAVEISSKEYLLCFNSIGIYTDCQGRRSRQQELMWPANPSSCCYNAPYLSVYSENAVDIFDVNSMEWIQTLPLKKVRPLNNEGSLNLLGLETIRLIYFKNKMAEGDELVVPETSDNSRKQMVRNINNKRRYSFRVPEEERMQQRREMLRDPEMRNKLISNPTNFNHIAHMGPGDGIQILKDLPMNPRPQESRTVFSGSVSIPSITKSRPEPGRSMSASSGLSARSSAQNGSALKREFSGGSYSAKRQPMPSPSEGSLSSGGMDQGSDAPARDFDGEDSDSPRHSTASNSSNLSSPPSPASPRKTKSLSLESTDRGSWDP

SMILES: COc1ccc2nc3cc(Cl)ccc3c(Nc3cc(CN4CCCC4)c(O)c(CN4CCCC4)c3)c2n1 [Pyronaridine, 4-[(7-Chloro-2-methoxybenzo[b][1,5]naphthyridin-10-yl)amino]-2,6-bis(1-pyrrolidinylmethyl)phenol phosphate (1:4)]
- inhibition at 1 µM [1]: -1%
- inhibition at 1 µM [2]: -3%
- inhibition at 1 µM [3]: -5%
- inhibition at 1 µM [4]: 4%
- inhibition at 1 µM [5]: 1%
- inhibition at 1 µM [6]: 2%
- inhibition at 1 µM [7]: 1%
- inhibition at 1 µM [8]: 3%
- inhibition at 1 µM [9]: -3%
- inhibition at 1 µM [10]: -3%
- inhibition at 1 µM [11]: 5%
- inhibition at 1 µM [12]: -1%
- inhibition at 1 µM [13]: 5%
- inhibition at 1 µM [14]: -3%
- inhibition at 1 µM [15]: -1%
- inhibition at 1 µM [16]: -4%
- inhibition at 1 µM [17]: -6%
- inhibition at 1 µM [18]: 3%
- inhibition at 1 µM [19]: -1%
- inhibition at 1 µM [20]: -2%
- inhibition at 1 µM [21]: 10%
- inhibition at 1 µM [22]: -10%
- inhibition at 1 µM [23]: 4%
- inhibition at 1 µM [24]: -1%
- inhibition at 1 µM [25]: 19%
- inhibition at 1 µM [26]: -7%
- inhibition at 1 µM [27]: 3%
- inhibition at 1 µM [28]: 4%
